Values of other authors in patent US20210361602A1, “DOSING METHODS FOR TREATING INFLAMMATORY BOWEL CONDITIONS” (priority 2020, published 2021).

Key:
[1] = enema by prior methods, two patients; Campieri et al. FIG. 4
[2] = orally administered; De Vos et al.

Nc1ccc(O)c(C(=O)O)c1 [5-ASA, 5-aminosalicylic acid]
systemic (plasma) levels of 5-ASA after bowel movement [1]: dramatically lower
levels of 5-ASA in the colon after laxative or colonic lavage [2]: decreased
